From patent publication US20050180962A1, “Inactivated probiotic bacteria and methods of use thereof” (priority 2003, published 2005)

Key:
DSS-induced colitis = DSS-induced colitis (DSS 3.5% in drinking water, 7 days); type: in vivo, Balb/c mice; design: key to Histological Score: summed histological score, 0 (minimum) to 20 (maximum); conditions: for Disease Activity Score / Histological Score / MPO: mean±SEM
Method: To induce dextran sodium sulfate (DSS) colitis, DSS (Sigma) was given in the drinking water for 7 days. Preliminary studies were performed to identify the concentration of DSS in the drinking water required to elicit a similar disease activity score in different mouse strains.
(§1) Mice were sacrificed 7 days after the induction of colitis. All studies were performed in a blind fashion.
Probiotics, including live probiotics, irradiated probiotics, and heat killed probiotics, were intragastrically (i.g.) given starting 10 days prior to the induction of colitis and for 7 days thereafter. In preliminary studies, mice were treated daily by i.g. administration of 0.28×10^8, 2.8×10^8 or 28×10^8 CFU of irradiated probiotics per mouse per day.
(§2) In another experiment 50 μg of these DNA preparations were administered i.g. or intrarectally (i.r.) 2 hrs prior to DSS administration. In the IL-10 deficient colitis model, ten-week old mice were treated s.c. once a week with the various DNA preparations (see above), and this treatment continued for 4 weeks as described (Rachmilewitz et al. (2002) supra). The disease-activity score, histological score, and colonic myeloperoxidase (MPO) activity were determined as described (Rachmilewitz et al. (2002) supra).
A mouse model of colitis was used and assessed, as described. Rachmilewitz et al. (2002) Gastroenterology 122:1428-1441. Colitis was induced by adding dextran sodium sulfate (DSS, Sigma), 3.5% to the drinking water, and allowing them to drink ad libitum. Seven days after induction of colitis, mice were weighed and inspected for diarrhea and rectal bleeding. The mice were sacrificed, and the entire colon was dissected and its length measured and weighed. Scores were again defined as follows: Changes in body weight: No loss—0; 5 to 10%—1; […], —2; 15 to 20%, —3; >20%—4. Hemoccult: No blood, —0; positive, —2; gross blood, —4. Mucosal samples were processed for determination of MPO activity according to: Bradley (1982) J Invest Dermatol 78:206-9.
When indicated, sections from the distal colon were fixed in buffered formalin and routine 5 μm sections were prepared and stained with hematoxylin and eosin. Stained sections were examined blindly and scored. The scoring system took into account the depth of the ulcer, the extent of the ulcer, presence of inflammation, extent of inflammation, and location of fibrosis. Minimal score was 0 and maximal score was 20. Scoring was as follows for depth of the ulcer: 0=no ulcer; 1—mucosal involvement; 2—mucosal+submucosal involvement; 3=penetration of muscularis propria; 4=full thickness involvement. Scoring was as follows for extent of the ulcer: 0=no ulcer; 1=punctate; 2=minimal; 3=moderate; 4=widespread. Scoring was as follows for presence of inflammation: 0=none; 1=minimal; 2=mild; 3=moderate; 4=severe. Scoring was as follows for extent of inflammation: 0=none; 1=mucosal; 2=mucosal+submucosal involvement; 3=mucosal+submucosal+muscle penetration; 4=full thickness involvement. Scoring was as follows for location of fibrosis: 0=none; 1=mucosa only; 2=mucosa+submucosa; 3=including muscle layer; 4=full thickness fibrosis.
Fifty mg colonic mucosal scrapings were homogenized with a polytron (Kinematica GmbH, Krienz-Luzem, Switzerland) in ice-cold hexadecyltrimethyl ammonium bromide (0.5%) in 50 mM phosphate buffer, pH 6.0. The homogenate was sonicated for 10 seconds, freeze-thawed three times, and centrifuged for 15 minutes. An aliquot of the supernatant was taken for determination of myeloperoxidase (MPO) enzyme activity, as described (Rachmilewitz et al. (2002) supra).

TNBS-induced colitis = experiment: TNBS-induced colitis; type: in vivo, Balb/c mice; conditions: s.c. once 2 hours before TNBS; day 7; mean±SEM
Method: Trinitrobenzenesulfonic acid (TNBS) colitis was induced in 8 week old, Balb/c mice by rectal instillation of 0.5 mg/mouse of 2,4,6-trinitrobenzene sulfonic acid (Sigma) dissolved in 0.1 ml of 50% ethanol as described. Rachmilewitz et al. (2002), supra.
as §1
as §2, with “Various DNA preparations (ISS-ODN and control-ODN, 30 μg/mouse; probiotic DNA, methylated probiotic DNA, E. coli DNA and calf thymus DNA, 50 μg/mouse) and DNase treated probiotics (i.e., the amount of microorganisms that yielded 50 μg of probiotic DNA) were s.c. injected 2 hrs prior to the administration of DSS or TNBS. In another” for “In another”

[1] = tested on: chronic DSS-induced colitis; experiment: Chronic DSS-induced colitis (treatment model); type: in vivo, Balb/c mice
Method: To evaluate whether probiotics are effective not only in the prevention but also in the treatment of colitis the following experiment was performed: Mice were treated for 7 days with DSS 3.5% added to the drinking water. From the 8th day until sacrifice on day 15, the concentration of DSS in the drinking water was reduced to 1.75%. During the 15 days of the experiment, 2 groups of mice were treated daily i.g. with viable or with irradiated probiotics 2.8×10^8 CFU. A third group was treated s.c. on day 8 with ISS-ODN (10 μg) and a fourth control group was treated i.g. daily with 0.2 ml of saline. […] The colon was isolated, weighed, sections were taken for histology and mucosal samples were obtained for MPO determination.

[2] = tested on: spontaneous colitis in IL-10 KO mice; experiment: Spontaneous colitis in IL-10 KO mice; type: in vivo, IL-10 KO mice (B6); conditions: s.c. once a week for 4 weeks; mean±SEM
Method: as §2, with “Various DNA preparations (ISS-ODN and control-ODN, 30 μg/mouse; probiotic DNA, methylated probiotic DNA, E. coli DNA and calf thymus DNA, 50 μg/mouse) and DNase treated probiotics (i.e., the amount of microorganisms that yielded 50 μg of probiotic DNA) were s.c. injected 2 hrs prior to the administration of DSS or TNBS. In another” for “In another”

TLR9 = experiment: IL-12 (p40) and IL-6 secretion by macrophages (ELISA); type: cell-based, mice; conditions: TLR9 null macrophages, 24 hours post-stimulation
commensal flora = experiment: Effect of chloroquine on stool flora of mice; type: in vivo; conditions: 10 mg/kg s.c. daily for 7 days versus saline
Method: Control group was treated s.c. daily with 0.2 ml of saline. After 7 days, stool samples were collected, homogenized and cultured on blood, Maconkey, phenylethanol, chocolate, M.R.S., and anaerobic agars.

[3] = i.g., 50 μg once 2 hours before DSS
[4] = s.c. once 2 hours before DSS, ODNs 30 μg/mouse, DNAs 50 μg/mouse
[5] = i.r., 50 μg once 2 hours before DSS
[6] = DSS 3.5% 7 days then 1.75% 7 days, probiotics 2.8×10^8 CFU i.g. daily, ISS-ODN 10 μg s.c. day 8, day 15, mean±SEM

Row | Compound | Disease Activity Score (DSS-induced colitis; [3]) | Histological Score (DSS-induced colitis; [3]) | MPO (DSS-induced colitis; [3]) | Disease Activity Score (DSS-induced colitis; [4]) | Histological Score (DSS-induced colitis; [4]) | MPO (DSS-induced colitis; [4]) | Disease Activity Score (TNBS-induced colitis) | Histological Score (TNBS-induced colitis) | MPO (TNBS-induced colitis) | also measured
1 | 5′-TGACTGTG AAGGTTAGAGATGA-3 (DNA TGACTGTGAAGGTTAGAGATGA; DNA, all phosphorothioate, methylation of C not given here) [Control-ODN] | 6.7 ± 0.8 | 5.7 ± 0.3 | 1.90 ± 0.20 U/gr | 3.8 ± 0.7 | 8.0 ± 0.9 | 4.2 ± 0.8 U/gr | 1.3 ± 0.2 | 4.8 ± 1.8 | 2.00 ± 0.30 U/gr | –
2 | 5′-TGACTGTGAACGTTCGAGATGA-3′ [ISS-ODN] | 3.6 ± 0.7 | 2.8 ± 0.6 | 1.09 ± 0.10 U/gr | 0.4 ± 0.4 | 0 ± 0 | 0.9 ± 0.1 U/gr | 0.4 ± 0.3 | 0 ± 0 | 0.8 ± 0.10 U/gr | outcome of colitis (DSS-induced colitis; i.r. administration, once 2 hrs before DSS): had no effect; Disease Activity Score (DSS-induced colitis; [5]): 6.3 ± 0.7; Histological Score (DSS-induced colitis; [5]): 5.9 ± 0.7; MPO (DSS-induced colitis; [5]): 1.90 ± 0.30 U/gr; severity of DSS-induced colitis (DSS-induced colitis; intragastric or s.c. administration, once 2 hrs before DSS): inhibited the severity; Disease Activity Score [1, 6]: 1.1 ± 0.4; Histological Score [1, 6]: 6.9 ± 0.8; MPO [1, 6]: 1.25 ± 0.19 U/gr; severity of chronic DSS induced colitis ([1]; given with or after induction of colitis): equally attenuate the severity; Histological Score [2]: 1.8 ± 1.2; MPO [2]: 0.8 ± 0.10 U/gr; secretion of p40 or IL-6 (TLR9): did not induce
3 | CCN(CC)CCCC(C)Nc1ccnc2cc(Cl)ccc12 (stereo not drawn) [Chloroquine, chloroquine] | – | – | – | – | – | – | – | – | – | identity or quantity of bacterial strains grown from the stool (commensal flora): No significant differences; MPO (DSS-induced colitis; colonic MPO, probiotics 2.8×10^8 CFU i.g. daily, chloroquine 10 mg/kg s.c. daily, DSS 3.5% 7 days): 1.54 ± 0.16 U/gr; Histological Score (DSS-induced colitis; probiotics 2.8×10^8 CFU i.g. daily, chloroquine 10 mg/kg s.c. daily, DSS 3.5% 7 days): 8.0 ± 0.8
